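1) Cells in 96-well plates. 2) Compound, 48 h, 5 concentrations. 3) Linear interpolation between surrounding doses. 4) Unreached endpoint = highest concentration. GI50 is the concentration that inhibits growth by half. The concentration for full growth arrest is given as TGI.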
Legend:
Experiment in all cases: NCI-60 cell line screen, 48 h
SF-539 CNS = test system: SF-539 CNS
DU-145 prostate = test system: DU-145 prostate
NCI-H23 lung = test system: NCI-H23 lung
TK-10 renal = test system: TK-10 renal
K-562 leukemia = test system: K-562 leukemia
CAKI-1 renal = test system: CAKI-1 renal
CCRF-CEM leukemia = test system: CCRF-CEM leukemia
ACHN renal = test system: ACHN renal
HL-60(TB) leukemia = test system: HL-60(TB) leukemia
BT-549 breast = test system: BT-549 breast

O=[N+]([O-])c1ccc(-n2nc3ccc4nonc4c3n2)cc1
TGI (SF-539 CNS): > 100 µM
TGI (DU-145 prostate): > 100 µM
TGI (NCI-H23 lung): > 100 µM
TGI (TK-10 renal): 39.9 µM
TGI (K-562 leukemia): > 100 µM
TGI (CAKI-1 renal): 73.7 µM
TGI (CCRF-CEM leukemia): > 100 µM
TGI (ACHN renal): > 100 µM
TGI (HL-60(TB) leukemia): > 100 µM
TGI (BT-549 breast): 63.7 µM

C=C(NC(=O)C(=C)NC(=O)c1ccc2c(n1)-c1coc(n1)C(=C)NC(=O)C(=C)NC(=O)c1nc(oc1C)C(=C)NC(=O)C(C(C)(C)O)NC(=O)C(=C)NC(=O)c1coc(n1)/C(=C/C)NC(=O)[C@H]([C@@H](C)O)NC(=O)c1csc-2n1)C(N)=O (some centres not stated)
TGI (SF-539 CNS): > 87.5 µM
TGI (DU-145 prostate): > 87.5 µM
TGI (NCI-H23 lung): > 87.5 µM
TGI (TK-10 renal): > 87.5 µM
TGI (K-562 leukemia): > 87.5 µM
TGI (CAKI-1 renal): > 87.5 µM
TGI (CCRF-CEM leukemia): > 87.5 µM
TGI (ACHN renal): > 87.5 µM
TGI (HL-60(TB) leukemia): > 87.5 µM
TGI (BT-549 breast): > 87.5 µM

O=P1(N(CCCl)CCCl)Oc2ccc(Cl)cc2C(C(Cl)(Cl)Cl)c2cc(Cl)ccc2O1 (configuration not stated)
TGI (SF-539 CNS): 29.9 µM
TGI (DU-145 prostate): > 100 µM
TGI (NCI-H23 lung): > 100 µM
TGI (TK-10 renal): 89.5 µM
TGI (K-562 leukemia): > 100 µM
TGI (CAKI-1 renal): > 100 µM
TGI (CCRF-CEM leukemia): > 100 µM
TGI (ACHN renal): > 100 µM
TGI (HL-60(TB) leukemia): > 100 µM
TGI (BT-549 breast): > 100 µM

COC1/C=C/C(C)C(O)CC(O)/C=C/C(C)C(C(C)C(OC)C(C)CCC(=O)C(C)C(C/C=C/N(C)C=O)OC)OC(=O)/C=C/C=C(\C)CC(OC)CC2=CC(=O)O[C@@H](C(C)C(OC)C1)[C@H]2O (some centres not stated)
TGI (SF-539 CNS): 0.0172 µM
TGI (DU-145 prostate): 4.09 µM
TGI (NCI-H23 lung): 0.0437 µM
TGI (TK-10 renal): 0.0551 µM
TGI (CAKI-1 renal): 0.0192 µM
TGI (CCRF-CEM leukemia): 2.98 µM
TGI (ACHN renal): 0.13 µM
TGI (HL-60(TB) leukemia): 0.252 µM
TGI (BT-549 breast): 1.5 µM

Nc1[nH]c(=O)nc2c1ncn2C1OC(CO)C(O)C1O (configuration not stated)
TGI (DU-145 prostate): 66.3 µM
TGI (NCI-H23 lung): > 100 µM
TGI (TK-10 renal): > 100 µM
TGI (K-562 leukemia): > 100 µM
TGI (CAKI-1 renal): > 100 µM
TGI (CCRF-CEM leukemia): 75.3 µM
TGI (ACHN renal): > 100 µM
TGI (HL-60(TB) leukemia): 54.9 µM
TGI (BT-549 breast): > 100 µM

Cc1ccccc1NC(=O)O/N=C(\Cl)C(C)C
TGI (SF-539 CNS): 22.6 µM
TGI (DU-145 prostate): 31.5 µM
TGI (NCI-H23 lung): 32 µM
TGI (TK-10 renal): 8.19 µM
TGI (K-562 leukemia): 5.51 µM
TGI (CAKI-1 renal): 3.2 µM
TGI (CCRF-CEM leukemia): > 21.7 µM
TGI (ACHN renal): 3.13 µM
TGI (HL-60(TB) leukemia): > 22 µM
TGI (BT-549 breast): 12.6 µM

CCOC(=O)NC(=S)N(CC(=O)c1cc(OC)c(OC)c(OC)c1)c1ccc(Cl)cc1
GI50 (SF-539 CNS): > 100 µM
TGI (SF-539 CNS): > 100 µM
GI50 (DU-145 prostate): 79.1 µM
TGI (DU-145 prostate): > 100 µM
GI50 (NCI-H23 lung): > 100 µM
TGI (NCI-H23 lung): > 100 µM
GI50 (TK-10 renal): 36.9 µM
TGI (TK-10 renal): > 100 µM
GI50 (K-562 leukemia): 51.8 µM
TGI (K-562 leukemia): > 100 µM
GI50 (CAKI-1 renal): 63.5 µM
TGI (CAKI-1 renal): > 100 µM
GI50 (CCRF-CEM leukemia): 71.4 µM
TGI (CCRF-CEM leukemia): > 100 µM
GI50 (ACHN renal): > 100 µM
TGI (ACHN renal): > 100 µM
GI50 (HL-60(TB) leukemia): 65.7 µM
TGI (HL-60(TB) leukemia): > 100 µM
GI50 (BT-549 breast): 41.6 µM
TGI (BT-549 breast): > 100 µM

CCN1CC2(C)CCC(OC)C34C5CC6CCC(O)(C5C(=O)O6)C(C(O)C23)C14 (configuration not stated)
TGI (SF-539 CNS): > 100 µM
TGI (DU-145 prostate): > 100 µM
TGI (NCI-H23 lung): > 100 µM
TGI (TK-10 renal): > 100 µM
TGI (K-562 leukemia): > 100 µM
TGI (CAKI-1 renal): > 100 µM
TGI (CCRF-CEM leukemia): > 100 µM
TGI (ACHN renal): > 100 µM
TGI (HL-60(TB) leukemia): > 100 µM
TGI (BT-549 breast): > 100 µM

Nc1c(C(=O)c2ccc(Cl)c(Cl)c2)[nH]c(NCc2ccccc2)c1C(=S)Nc1ccccc1
TGI (SF-539 CNS): 6.47 µM
TGI (DU-145 prostate): 32.4 µM
TGI (NCI-H23 lung): 41.6 µM
TGI (TK-10 renal): 33.4 µM
TGI (K-562 leukemia): > 100 µM
TGI (CAKI-1 renal): 32.2 µM
TGI (ACHN renal): 28.1 µM
TGI (HL-60(TB) leukemia): 38.4 µM
TGI (BT-549 breast): 30.5 µM

N#CCCC(C=O)(CCC#N)CCC#N
TGI (SF-539 CNS): > 100 µM
TGI (DU-145 prostate): > 100 µM
TGI (NCI-H23 lung): > 100 µM
TGI (TK-10 renal): > 100 µM
TGI (K-562 leukemia): > 100 µM
TGI (CAKI-1 renal): > 100 µM
TGI (CCRF-CEM leukemia): > 100 µM
TGI (ACHN renal): > 100 µM
TGI (HL-60(TB) leukemia): > 100 µM
TGI (BT-549 breast): > 100 µM

From PubChem BioAssay (NCI)
